Source: paper PMC11015057 (ACS Infectious Diseases, 2024)
Values after ≈ are worked out from the molar mass of the structure shown. Where two headings read alike, the source gives them in different places.

Tests used:
[1] = test system: uropathogens, including Escherichia coli; conditions: cited from earlier work
[2] = test system: E. coli TOP10 (GyrA^WT, ParC^WT); assay: microbe, parasite or virus in culture; type: cell-based; conditions: Escherichia coli
[3] = test system: E. coli TOP10-3 (GyrA^P35L, ParC^D79N); assay: MIC, antibacterial susceptibility (CLSI); type: cell-based; conditions: Escherichia coli

## O=c1ccc2ncc(=O)n3c2n1C[C@H]3CN1CCC(NCc2cc3c(cn2)OCCC3)CC1 [gepotidacin]
[1]; EAGLE-3 phase III trial
  clinical efficacy versus nitrofurantoin: demonstrated statistically significant superiority versus nitrofurantoin
[1]; phase III trials, patients with confirmed uncomplicated urinary tract infection and uropathogen susceptible to nitrofurantoin
  clinical efficacy versus nitrofurantoin: demonstrated noninferiority to nitrofurantoin
[2]
  MIC: 0.125 µg/mL (≈ 0.279 µM)
[3]
  MIC: 16 µg/mL (≈ 35.7 µM)
